Laboratory results as given in US9271946B2, “Use of a RAR antagonist or inverse agonist for the treatment of chemotherapy and/or radiation therapy side effects” (IO Therapeutics, Inc., priority 2006, dated 2016).

Columns and labels:
[1] = test system: 5-FU-induced neutropenic male BDF1 mice; experiment: monotherapy and combination therapy on neutrophil recovery in 5-FU-induced neutropenic mice (Example 5); format: in vivo, mouse
Description: VTP194310 DMSO Stock solution was made by weighing out VTP194310 and dissolving it in DMSO (25 mg/1.33 ml DMSO).
The Vehicle solution was made by mixing 39.2 ml Corn Oil+0.8 ml DMSO.
The 3.0 mg/kg VTP194310 solution was made by mixing 39.2 ml Corn Oil+0.8 ml VTP 194310 DMSO Stock solution.
The 150 mg/kg 5-FU solution was made by weighing out 187.5 mg 5-FU and mixing it with 10 g saline.
The 10 μg/kg PEG-G-CSF solution was made by diluting 6 mg/ml stock with PBS.
Male BDF1 mice (C57Bl×DBA2), 9 weeks old, DOB: 26 Jun. 2006) were used in this experiment.
Each group of mice were treated with 150 mg/kg 5-FU intravenously on Day 0, vehicle or VTP194310 orally by gavage at 3 mg/kg/day on Days 2 to 4, and/or subcutaneously with PEG-G-CSF at 10 μg/kg on Days 5, 6, or 7 according to the regimens listed in the table. The mean numbers of total white blood cells (WBC), neutrophils, lymphocytes, red blood cells (RBC) and platelets and standard error (SE) of data obtained for each treated group are shown in FIG. 6.

RAR = experiment: transactivation assays; format: cell-based
Description: An assay that can be used to determine the agonist activity in the RARα, RARβ and RARγ receptor subtypes is described in Feigner, P. L., and Holm, M., FOCUS, 11:2, 21+ (1989) and U.S. Pat. Nos. 5,455,265 and 7,166,726, all of which are incorporated herein by reference in their entirety.

S. aureus MSSA 476 = experiment: activity against S. aureus, growth on agar and in liquid culture; format: cell-based
Description: (§1) The compound was analyzed at an appropriate concentration in several assays for activity against S. aureus EMRSA-16 252 and S. aureus MSSA 476.

S. aureus EMRSA-16 252 = experiment: as above; format: cell-based
Description: as §1

[2] = test system: CPM-induced leukopenic male BDF1 mice; experiment: cyclophosphamide-induced mouse model of leukopenia, blood cell recovery (Example 1); format: in vivo; details: for lymphocyte counts: mean±SEM
Description: Mice purchased from Charles River Laboratories (Wilmington, Mass.) were housed individually in micro-isolater cages in a 12-hour light/dark cycle. They were housed under pathogen-free conditions, and received a normal standard diet and water ad libitum. They were acclimated for one week at the Association for Assessment and Accreditation of Laboratory Animal Care (AAALAC) accredited animal facility (Allergan Inc., Irvine, Calif.) prior to experiments. Study designs were approved by the Institutional Animal Care and Use Committee. Body weights were monitored throughout each study. Weight of the mice was in the range of 22-27 g at the day of treatment initiation. The mice were healthy, not previously used in other experimental procedures.
Leukopenia was induced in male BDF1 mice (C57Bl×DBA2, 7.5-12 weeks) by an intra-peritoneal (i.p.) injection of 200 mg/kg Cyclophosphamide (CPM, Sigma-Aldrich, Saint Louis, Mo.) in 0.2 ml saline. The effect of VTP 194310 on leukocyte recovery was evaluated by oral gavage of animals with 1 mg/kg of VTP 194310 as indicated in the results section. VTP 194310 (dissolved in DMSO) was diluted through peanut oil as the vehicle (dosed at 5 ml/kg). Control mice were given DMSO and vehicle alone. As a positive control, granulocytopoiesis was stimulated in CPM-treated mice by a single sub-cutaneous injection of 10 μg/kg pegylated recombinant methionyl human granulocyte colony-stimulating factor (PEG-r-metHuG-CSF) (Neulasta, Pegfilgrastim; Amgen, Thousand Oaks, Calif.) on day 2. Three separate experiments were performed.
Peripheral blood (60 μl) was collected under anaesthesia from the retroorbital sinus of the mice with heparinized capillary tubes and transferred to EDTA-coated microtainer tubes (Becton Dickinson, Franklin Lakes, N.J.). White cell, neutrophil, and lymphocyte counts were obtained for at least three mice per group by diluting the blood 1:4 with PBS containing 5% bovine serum albumin (Fraction V; Sigma, Saint Louis, Mo.), and by using an Advia 120 Hematology System (Bayer HealthCare Diagnostics Division, Tarrytown, N.Y.).

RARβ = target: T1, RARβ (Homo sapiens, UniProt P10826); experiment: binding to RARβ
T1 sequence (P10826 1-455): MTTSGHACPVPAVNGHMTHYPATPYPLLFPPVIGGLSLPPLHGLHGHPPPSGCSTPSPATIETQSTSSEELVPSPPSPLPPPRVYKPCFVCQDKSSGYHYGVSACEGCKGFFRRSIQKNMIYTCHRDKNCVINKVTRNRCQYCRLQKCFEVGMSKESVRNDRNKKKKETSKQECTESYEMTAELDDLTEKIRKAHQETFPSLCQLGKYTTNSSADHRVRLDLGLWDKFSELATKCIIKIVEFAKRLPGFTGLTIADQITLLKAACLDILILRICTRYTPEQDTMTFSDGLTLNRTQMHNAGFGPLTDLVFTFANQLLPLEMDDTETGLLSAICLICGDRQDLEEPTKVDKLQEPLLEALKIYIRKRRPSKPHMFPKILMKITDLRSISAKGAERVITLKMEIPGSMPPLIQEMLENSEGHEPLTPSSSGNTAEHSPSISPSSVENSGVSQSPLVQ

[3] = 2 μM incorporated into the agar
[4] = 50 μl of 2 μM in agar-well-diffusion assay
[5] = 1 mg/kg oral at days −4 to −1 and at days 0 to 3
[6] = day 8, 1 mg/kg oral at days −4 to −1 and at days 0 to 3, CPM day 0

In the case of CCc1ccc(C2=CC(C)(C)Sc3ccc(C#Cc4ccc(C(=O)O)cc4)cc32)cc1 [VTP 194310, 4-[[4-(4-ethylphenyl)-2,2-dimethyl-(2H)-thiochromen-6-yl]-ethynyl]-benzoic acid], the “effectiveness in enhancing neutrophil recovery compared to PEG-G-CSF” value ([1]; 3 mg/kg/day Days 2 to 4 vs PEG-G-CSF 10 μg/kg Days 5, 6, or 7) is reported as “more effective than PEG-G-CSF”, the “recovery of neutrophils relative to control” value ([1]; monotherapy, 5-FU 150 mg/kg i.v. Day 0, VTP 194310 3 mg/kg/day oral Days 2 to 4, PEG-G-CSF 10 μg/kg s.c. Day 5, 6, or 7) is reported as “improved the recovery of neutrophils” and the “activity in transactivation assays” value (RAR; agonist activity) is reported as “no activity”. The “gene transcriptional activity induced by ATRA and other RAR agonists” value (RAR; antagonism) was “blocks the gene transcriptional activity”, the “growth rate in liquid culture” value (S. aureus MSSA 476; 2 μM) was “neither strain demonstrated any alteration in growth rate” and the “growth of bacteria on agar” value (S. aureus MSSA 476; [3]) was “not inhibited”. The “growth of bacteria on agar” value (S. aureus MSSA 476; [4]) was “not inhibited”, the “growth rate in liquid culture” value (S. aureus EMRSA-16 252; 2 μM) was “neither strain demonstrated any alteration in growth rate” and the “growth of bacteria on agar” value (S. aureus EMRSA-16 252; [3]) was “not inhibited”. For the same molecule, the “growth of bacteria on agar” value (S. aureus EMRSA-16 252; [4]) was “not inhibited”, the “numbers of leukocytes and neutrophils generated” value ([2]; 1 mg/kg oral at days 4 to 7) was “improved the numbers of leukocytes and neutrophils generated, but to an extent that was considerably less” and the “earliest day with significant differences in recovery” value [2, 5] was 5 day post-CPM. For the same molecule, the “rise of leukocyte and neutrophil counts compared to control leukopenic mice” value [2, 5] was “rose quicker”, the leukocyte recovery ([2]; CPM 200 mg/kg i.p., 1 mg/kg oral gavage) was “improved leukocyte recovery” and the “leukocyte counts in blood versus mice treated with CPM alone” value [2, 6] was ~3 fold. For the same molecule, the “neutrophil counts in blood versus mice treated with CPM alone” value [2, 6] was ~3 fold, the lymphocyte counts ([2]; day 8, dosed days 0 to 3) was 4.49±0.52 ×10^3/μl and the lymphocyte counts ([2]; day 8, dosed days −4 to −1) was 4.53±0.39 ×10^3/μl. For the same molecule, the “number of lymphocytes in blood compared to control leukopenic mice and Peg-r-metHuG-CSF mice” value ([2]; dosed days −4 to −1 and days 0 to 3) was “increased number of lymphocytes” and the Ki (RARβ) was 2 nM.
